The target in one assay is T1, CCK-2 receptor (Homo sapiens, UniProt P32239).
T1 sequence (P32239 1-447): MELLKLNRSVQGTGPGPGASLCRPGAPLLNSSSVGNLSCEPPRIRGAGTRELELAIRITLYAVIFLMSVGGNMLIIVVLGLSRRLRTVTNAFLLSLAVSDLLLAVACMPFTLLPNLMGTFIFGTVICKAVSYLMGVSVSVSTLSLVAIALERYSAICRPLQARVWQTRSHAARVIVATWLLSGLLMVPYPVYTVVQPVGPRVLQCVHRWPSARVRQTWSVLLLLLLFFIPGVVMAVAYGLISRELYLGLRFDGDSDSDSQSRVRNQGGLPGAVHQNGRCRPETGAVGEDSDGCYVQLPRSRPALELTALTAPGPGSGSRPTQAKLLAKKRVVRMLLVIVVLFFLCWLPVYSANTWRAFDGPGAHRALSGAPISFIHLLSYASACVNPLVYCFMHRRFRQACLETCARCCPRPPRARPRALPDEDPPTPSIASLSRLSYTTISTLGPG
In words: Gamide-stimulated inositol phosphate production in COS-7 cells transfected with the CCK-2 receptor. Also noted: COS-7 cells transiently transfected with CCK-2 receptor cDNA; expressed in transfected cells; host or cells: COS-7. It counts as cell-based. The protocol: (§1) Intracellular inositol phosphate production was determined as described previously (Qian et al, 1993). IMGE-5 cells (10^5 cells/ml) were plated in 24-multiwell culture plates in DMEM supplemented with 10% FBS, 200 IU/ml penicillin and 200 μg/ml streptomycin. 24 h later, cells were incubated with DMEM supplemented with antibiotics and Myo-[2-^3H]inositol (2.5 μCi/well) and shifted to 39° C. for 16 h. Cells were then washed with pre-warmed DMEM and incubated (20-30 minutes, 37° C.) with DMEM supplemented with 20 mM LiCl. Loaded cells were then washed in 1 ml of IP buffer (135 mM NaCl, 20 mM N-(2-hydroxyethyl)piperazine-N′-(2-ethanesulfonic acid), 2 mM CaCl2, 1.2 mM MgSO4, 1 mM ethylene glycol-bis(2-aminoethylether)-N,N,N′,N′-tetraacetic acid, 10 mM LiCl, and 0.5% bovine serum albumin, pH 7.45) and incubated with or without agonist in a final volume of 0.5 ml of IP buffer. After 1-h incubation at 37° C., the reaction was stopped by removing the incubation medium and adding 1 ml of a mixture of ethanol/HCl (2000:1; v/v). One ml of each aliquot was applied to a column containing 1.6 ml of a 1:2 (v/v) Dowex AG-1-X8 anion exchange resin in distilled water. The columns were washed with 4 ml of distilled water, followed by 4 ml of 40 mM HCOONH4, and inositol phosphates were eluted with 4 ml of 1 M HCOONH4. The radioactivity of each eluate was counted after addition of Complete phase combining system solution (Amersham, UK). For the positive control, IMGE-5 cells were incubated with a combination of 30 mM NaF and 10 μM AlCl3 under the same experimental conditions.
Gamide-stimulated inositol phosphate production was measured in COS-7 cells transfected with the CCK-2 receptor. […] Bismuth ions alone had no effect on inositol phosphate production in CCK-2 receptor-transfected COS-7 cells and HT29 cells, even at the highest concentration tested.
We then investigated the role of the individual glutamates in biological activity. The effects of the mutants GamideE7A and GamideE8,9A on inositol phosphate production in COS-7 cells transiently transfected with the CCK-2 receptor were compared.

Assay [1] has as its system IMGE-5 cells. In words: IMGE-5 cell proliferation, MTT assay. Format: cell-based, mice. The following applies: for Mean Response ± SEM (% Control), proliferation of IMGE cells: treatment alone: 10 nM Ggly, 32 mol/mol Bi without Ggly, fetal calf serum positive control. (Formazan colour is commonly taken as a measure of viable cells.)
Assay [2] has as its system IMGE-5 cells. In words: Wound healing / cell migration assay. Format: cell-based, mice. The following applies: for Stimulation of IMGE-5 cell migration: wound healing assay, fragments and mutants shown at 1 nM (FIGS. 7B, 8B). A digest of the protocol: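 Murine gastric IMGE-5 cells at 80% confluence were shifted to 39 °C (non-permissive), serum-starved 24 h, then scratch-wounded. They were treated with or without compound in serum-free DMEM. Wound width was measured at six positions after 24 h and averaged.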

Assay [3] concerns AGS gastric carcinoma cells. In words: AGS cell proliferation, MTT assay. Format: cell-based, human. To be noted: treatment alone: 10 nM Ggly; 32 mol/mol Bi without Ggly; fetal calf serum positive control.
Assay [4] deals with HT29 human colorectal carcinoma cells. In words: Ggly-stimulated inositol phosphate production in HT29 cells. It counts as cell-based. The protocol:
as §1
Ggly-stimulated inositol phosphate production was measured in HT29 human colorectal carcinoma cells.

Another assay concerns HT29 cells. In words: HT29 cell proliferation, MTT assay. Format: cell-based, human.

Entries after “also recorded” stand apart in the source; their conditions may differ.

In the case of `CSCC[C@H](NC(=O)[C@H](Cc1c[nH]c2ccccc12)NC(=O)CNC(=O)[C@H](Cc1ccc(O)cc1)NC(=O)[C@H](C)NC(=O)[C@H](CCC(=O)O)NC(=O)[C@H](CCC(=O)O)NC(=O)[C@H](CCC(=O)O)NC(=O)[C@H](CCC(=O)O)NC(=O)[C@H](CCC(=O)O)NC(=O)[C@H](CC(C)C)NC(=O)[C@H](Cc1c[nH]c2ccccc12)NC(=O)[C@@H]1CCCN1C(=O)CNC(=O)[C@@H]1CCC(=O)N1)C(=O)N[C@@H](CC(=O)O)C(=O)N[C@@H](Cc1ccccc1)C(N)=O` [Gamide], on CCK-2 receptor (10 nM peptide), the “Stimulation of inositol phosphate production” value was “No significant difference was observed in the extent of stimulation”. Further, the “Increase in inositol phosphate production” value at CCK-2 receptor (COS-7 cells transfected with the CCK-2 receptor, 10 μM AlF4−, 10 nM Gamide) was 4 fold. Moreover, in the assay on IMGE-5 cells [1], the “Increase in proliferation of IMGE-5” value was found to be 2 fold. Further, the “Stimulation of IMGE-5 cell migration” value in the assay with IMGE-5 cells [2] was “did not stimulate IMGE-5 cell migration; also recorded: inactive”.

With `[Bi+3]` [bismuth ions], the “Effect on Gamide-induced inositol phosphate production” value on CCK-2 receptor (2, 8, and 32 moles Bi3+/mole Gamide, 10 nM Gamide) is listed as “no significant effect”. Also, the “Effect of bismuth ions alone on inositol phosphate production” value on CCK-2 receptor (CCK-2 receptor-transfected COS-7 cells, highest concentration tested) is recorded as “no effect”; in assay [4] (HT29 cells, highest concentration tested), “no effect”. Besides, the “Mean Response ± SEM (% Control), proliferation of AGS cells” value in assay [3] was determined as 102.2 ± 4.2 % Control. Moreover, in assay [4] (2, 8, and 32 moles Bi3+/mole Ggly, 10 nM Ggly), the “Effect on Ggly-induced inositol phosphate production” value is “significantly reduced this Ggly-induced stimulation”. Further, in the assay with HT29 cells (2, 8 or 32 moles/mole, 10 nM Ggly, HT29), the “Effect on proliferation induced by Ggly” value is “significantly decreased the proliferation induced by Ggly”. In addition, the “Effect of bismuth ions alone on proliferation” value with HT29 cells (HT29, highest concentrations tested) was “no effect”. In addition, the “Mean Response ± SEM (% Control), proliferation of IMGE cells” value in the assay with IMGE-5 cells [1] was 97.9 ± 2.5 % Control. Also, the “Effect on Ggly-induced migration of IMGE-5 cells” value in the assay with IMGE-5 cells [2] (2, 8 or 32 moles/mole Ggly, 10 nM Ggly, 17 or 24 hours) is “completely blocked”. Further, in the assay with IMGE-5 cells [2] (maximum concentration tested, without Ggly), the “Effect of bismuth ions alone on migration” value is reported as “no effect”.

Consider “Ggly: glycine-extended gastrin17, 18 amino acid non-amidated gastrin, SEQ ID NO:4, residues 55-72 of progastrin (XGPWLEEEEEAYGWMDFG; (1)..(1) pyroglutamate; listed as Homo sapiens)”, for which the “Mean Response ± SEM (% Control), proliferation of AGS cells” value in assay [3] turned out to be 126.0 ± 2.3 % Control. In assay [4] (HT29 cells, 10 nM Ggly), the “Inositol phosphate production compared to the control” value was determined as 225%. Moreover, in the assay with HT29 cells (10 nM Ggly, MTT), the “HT29 cell proliferation compared to the control” value was determined as 120%. Besides, in the assay with IMGE-5 cells [1], the “Increase in proliferation of IMGE-5” value was 2 fold and the “Mean Response ± SEM (% Control), proliferation of IMGE cells” value was 135.7 ± 3.6 % Control. For the same compound, the “Stimulation of IMGE-5 cell migration” value with IMGE-5 cells [2] is “considerably reduced wound size”.
